According to US5817332A, “Transdermal drug delivery system” (priority 1994, dated 1998):
Converted amounts (≈) assume the structure as drawn. Read-outs that look alike come from different tables or passages of the source.

Legend:
[1] = Phase-solubility of dexmedetomidine in aqueous 2-HP-β-CD solutions (phosphate buffers, 32 °C); assay type: physicochemical; settings: for solubility at 240 h: phosphate buffer with 2-hp-β-cd, 32° C., read-out: DEX solubility
Method: The excess amount of the drug was added to pH 6.0, 7.0 and 8.0 phosphate buffers (142 mM) and the pHs of the suspensions were readjusted with 0.2M NaOH. The suspensions were shaken at 32° C. in a water bath for 10 days. After equilibration, the saturated solutions of DEX were filtered, diluted and the concentrations of DEX were analyzed by RP-HPLC at 210 nm.

[2] = In vitro release of DEX from silicone depot patches in diffusion cells; assay type: physicochemical; settings: trisodium phosphate in device core
Method: The effect of cyclodextrin on the release rate of DEX was determined using reservoir-type silicone depot patches. Typical composition of the reservoir containing the drug and CD in molar ratio 1:1 was:
______________________________________
DEX HCl 200 μg (170 μg DEX base)
Tris-buffer (TRIS), trisodium phosphate (TP), disodium phosphate (DP), sodium phosphate (MP) or the mixture of disodium and sodium phosphates (50/50) (MP/DP) were used to buffer the devices. 2-HP-β-CD was added to the device in three different ways:
1) without precomplexation with DEX
2) using an inclusion complex of DEX and CD prepared by grinding
3) using an inclusion complex of DEX and CD prepared by spray-drying
In some patches the amount of pH-adjusting agent (DP) was decreased from 1600 μg to 200 μg or 2-HP-γ-CD was used instead of β-derivative.
Silicone membranes for the devices were made of MDX-4-4210 medical grade elastomer (Dow Corning, Midland, […].) by mixing 10% (w/w) MDX-4240 curing agent with the elastomer. […]
In vitro release of DEX from the devices was determined in diffusion cells at 34 ±1° C. […] At predetermined times, samples of 250 μl were withdrawn, replaced by fresh buffer solution, and the concentration of DEX in the samples was analyzed by RP-HPLC. After each release experiment pH in the devices was measured with a microelectrode.

[3] = as pH is increased; cited from earlier work

SMILES: Cc1cccc([C@H](C)c2cnc[nH]2)c1C [DEX, dexmedetomidine]
- influence of 2-HP-β-CD on solubility of DEX (in words) ([1]; pH 6.0, 7.0 and 8.0): the greatest as the pH of the solutions was highest
- improvement of the solubility of DEX by addition of 50% (m/V) 2-HP-β-CD ([1]; pH 6.0, 7.0 and 8.0 buffers): 19-99 times
- solubility at 240 h ([1]; pH 6, pH 6, 2-HP-β-CD 5 % (m/V) (35 mM)): 7060 µg/mL (≈ 35.3 mM)
- solubility at 240 h ([1]; pH 6, pH 6, 2-HP-β-CD 10 % (m/V) (70 mM)): 10000 µg/mL (≈ 50 mM)
- solubility at 240 h ([1]; pH 6, pH 6, 2-HP-β-CD 15 % (m/V) (105 mM)): 12800 µg/mL (≈ 63.9 mM)
- solubility at 240 h ([1]; pH 6, pH 6, 2-HP-β-CD 30 % (m/V) (209 mM)): 20900 µg/mL (≈ 105 mM)
- solubility at 240 h ([1]; pH 6, pH 6, 2-HP-β-CD 50 % (m/V) (349 mM)): 36800 µg/mL (≈ 184 mM)
- solubility at 240 h ([1]; pH 7, pH 7, 2-HP-β-CD 5 % (m/V) (35 mM)): 1600 µg/mL (≈ 7.99 mM)
- solubility at 240 h ([1]; pH 7, pH 7, 2-HP-β-CD 10 % (m/V) (70 mM)): 3040 µg/mL (≈ 15.2 mM)
- solubility at 240 h ([1]; pH 7, pH 7, 2-HP-β-CD 15 % (m/V) (105 mM)): 4910 µg/mL (≈ 24.5 mM)
- solubility at 240 h ([1]; pH 7, pH 7, 2-HP-β-CD 30 % (m/V) (209 mM)): 9330 µg/mL (≈ 46.6 mM)
- solubility at 240 h ([1]; pH 7, pH 7, 2-HP-β-CD 50 % (m/V) (349 mM)): 12800 µg/mL (≈ 64.1 mM)
- solubility at 240 h ([1]; pH 8, pH 8, 2-HP-β-CD 5 % (m/V) (35 mM)): 1230 µg/mL (≈ 6.15 mM)
- solubility at 240 h ([1]; pH 8, pH 8, 2-HP-β-CD 10 % (m/V) (70 mM)): 2260 µg/mL (≈ 11.3 mM)
- solubility at 240 h ([1]; pH 8, pH 8, 2-HP-β-CD 15 % (m/V) (105 mM)): 3770 µg/mL (≈ 18.8 mM)
- solubility at 240 h ([1]; pH 8, pH 8, 2-HP-β-CD 30 % (m/V) (209 mM)): 7200 µg/mL (≈ 35.9 mM)
- solubility at 240 h ([1]; pH 8, pH 8, 2-HP-β-CD 50 % (m/V) (349 mM)): 13300 µg/mL (≈ 66.2 mM)
- increase of DEX release rate by trisodium phosphate [2]: over 180 times
- aqueous solubility (in words) [3]: drops dramatically
